Tested on: Male C57 mice
Assay: Forced Swim Test
Type: in vivo
Settings: 10 mg/kg, intraperitoneally, 0.5h after administration; compared to the solvent control group; Figure 1
Protocol: Drugs to be tested: The compounds of the present invention and the positive control compound (vortioxetine) were mixed with 5% DMSO, then mixed with 5% Solutol® HS 15, and then 90% physiological saline was added to prepare a solution of appropriate concentration. The solution was prepared immediately before use.
Animal: Male C57 mice, approximately 22g. Animals were randomly divided into a blank control group and each test drug group, with 8 animals in each group. Mice in each group were intraperitoneally injected with either the solvent or the test drug.
Experimental Procedure: Forced swimming test was performed on the mice 0.5h after drug administration. The water level in the forced swimming device was 45cm, and the water temperature was 25°C. The mice were placed in the experimental room for 1h to acclimatize before the experiment. Mice were placed in the device at the start of the experiment for 6 minutes, and the entire process was recorded by a camera. Data analysis only considered the immobility time of the mice during the last 4 minutes.

Cc1ccc(Sc2ccccc2N2CCNCC2)c(C)c1 [vortioxetine]
immobility time of mice: significantly reduced the immobility time
